Patent US11541028B2, “Peptide pharmaceuticals for treatment of NASH and other disorders” (Mederis Diabetes LLC, priority 2018, dated 2023)
Bridge positions count the residues as written; N and C are the ends. Square brackets hold non-standard residues; d marks the D form. Peptide text beside a SMILES is read from it. * marks the point of attachment. Melibiouronoyl(1β-O-dodecyl) = CCCCCCCCCCCCO[C@@H]1O[C@H](CO[C@H]2O[C@H](C(=O)*)[C@H](O)[C@H](O)[C@H]2O)[C@@H](O)[C@H](O)[C@H]1O; X2 = CCCCCCCCCCCCCCO[C@@H]1O[C@H](CO[C@H]2O[C@H](C(=O)*)[C@H](O)[C@H](O)[C@H]2O)[C@@H](O)[C@H](O)[C@H]1O; GlcA(1β-O-tetradecyl) = CCCCCCCCCCCCCCO[C@@H]1O[C@H](C(=O)*)[C@@H](O)[C@H](O)[C@H]1O; Aib = CC(C)(N)C(=O)O

Columns and labels:
human GLP-1 receptor = target: T1, human GLP-1 receptor (Homo sapiens, UniProt P43220); assay: DiscoveRx LeadHunter cellular assay, cAMP stimulation, GLP-1 receptor in CHO cells; format: cell-based; settings: human GLP-1 receptor in CHO cells (DiscoveRx); read-out: EC50 cAMP GLP-1 R
T1 construct: host or cells: CHO cells
T1 sequence (P43220 24-463): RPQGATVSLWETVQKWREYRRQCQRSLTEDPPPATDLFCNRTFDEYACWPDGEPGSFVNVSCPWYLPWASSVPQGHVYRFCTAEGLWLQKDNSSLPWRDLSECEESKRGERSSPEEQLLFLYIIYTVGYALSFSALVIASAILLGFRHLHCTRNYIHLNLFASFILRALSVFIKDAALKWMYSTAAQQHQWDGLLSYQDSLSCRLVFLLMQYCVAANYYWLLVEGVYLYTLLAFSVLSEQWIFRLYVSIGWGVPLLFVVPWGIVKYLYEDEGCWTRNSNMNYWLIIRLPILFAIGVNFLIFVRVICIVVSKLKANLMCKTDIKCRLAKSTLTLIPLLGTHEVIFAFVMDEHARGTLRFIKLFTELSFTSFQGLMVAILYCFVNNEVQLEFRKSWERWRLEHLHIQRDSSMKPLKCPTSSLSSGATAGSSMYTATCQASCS

human glucagon receptor = target: T2, human glucagon receptor (Homo sapiens, UniProt P47871); assay: DiscoveRx LeadHunter cellular assay, cAMP stimulation, glucagon receptor in CHO cells; format: cell-based
T2 construct: host or cells: CHO cells
T2 sequence (P47871 26-477): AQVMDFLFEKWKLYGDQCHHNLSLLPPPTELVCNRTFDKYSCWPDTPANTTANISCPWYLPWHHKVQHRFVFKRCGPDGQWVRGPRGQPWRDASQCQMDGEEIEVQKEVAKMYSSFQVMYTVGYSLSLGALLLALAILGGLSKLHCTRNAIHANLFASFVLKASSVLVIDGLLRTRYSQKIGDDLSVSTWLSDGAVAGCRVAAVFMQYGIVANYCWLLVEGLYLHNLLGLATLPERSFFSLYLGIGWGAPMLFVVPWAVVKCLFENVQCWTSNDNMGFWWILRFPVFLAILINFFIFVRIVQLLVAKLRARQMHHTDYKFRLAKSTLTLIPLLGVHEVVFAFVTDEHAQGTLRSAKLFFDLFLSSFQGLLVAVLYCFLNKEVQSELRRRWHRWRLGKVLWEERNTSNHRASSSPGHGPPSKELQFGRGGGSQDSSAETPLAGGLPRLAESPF

Structure (SMILES)	EC50 (human GLP-1 receptor) [nM]	EC50 (human glucagon receptor) [nM]
CCCCCCCCCCCCCCO[C@@H]1O[C@H](CO[C@H]2O[C@H](C(=O)NCCCC[C@H](NC(=O)[C@H](C)NC(=O)[C@H](C)NC(=O)[C@H](CCC(N)=O)NC(=O)[C@H](CO)NC(=O)[C@H](CC(=O)O)NC(=O)[C@@H]3CCCCNC(=O)CC[C@H](NC(=O)[C@H](CC(=O)O)NC(=O)[C@H](CO)NC(=O)[C@@H](NC(=O)[C@H](Cc4ccccc4)NC(=O)[C@@H](NC(=O)CNC(=O)[C@H](CCC(N)=O)NC(=O)C(C)(C)NC(=O)[C@@H](N)Cc4c[nH]cn4)[C@@H](C)O)[C@@H](C)O)C(=O)N[C@@H](CO)C(=O)N[C@@H](CCCCN)C(=O)N[C@@H](Cc4ccc(O)cc4)C(=O)N3)C(=O)N[C@@H](CCC(=O)O)C(=O)N[C@@H](Cc3ccccc3)C(=O)N[C@H](C(=O)N[C@@H](CCC(N)=O)C(=O)N[C@@H](Cc3c[nH]c4ccccc34)C(=O)N[C@@H](CC(C)C)C(=O)N[C@@H](CC(C)C)C(=O)N[C@@H](CCC(N)=O)C(=O)N[C@H](C(N)=O)[C@@H](C)O)[C@@H](C)CC)[C@H](O)[C@H](O)[C@H]2O)[C@@H](O)[C@H](O)[C@H]1O [EU-A1729] (H-H[Aib]QGTFTSDESKYKDSQAAK(X2)EFIQWLLQT-NH2; lactam 10-14)	0.006	0.558
CCCCCCCCCCO[C@@H]1O[C@H](C(=O)NCCCC[C@H](NC(=O)[C@@H](NC(=O)[C@H](Cc2ccccc2)NC(=O)[C@H](CCC(=O)O)NC(=O)[C@@H]2CCCCNC(=O)CC[C@H](NC(=O)[C@H](CC(=O)O)NC(=O)[C@H](CC(C)C)NC(=O)[C@H](Cc3ccc(O)cc3)NC(=O)[C@H](CCCCN)NC(=O)[C@H](CO)NC(=O)[C@H](Cc3ccc(O)cc3)NC(=O)[C@H](CC(=O)O)NC(=O)[C@H](CO)NC(=O)[C@@H](NC(=O)[C@H](Cc3ccccc3)NC(=O)[C@@H](NC(=O)CNC(=O)[C@H](CCC(N)=O)NC(=O)C(C)(C)NC(=O)[C@@H](N)Cc3c[nH]cn3)[C@@H](C)O)[C@@H](C)O)C(=O)N[C@@H](CCC(N)=O)C(=O)N[C@@H](C)C(=O)N[C@@H](C)C(=O)N2)[C@@H](C)CC)C(=O)N[C@@H](Cc2c[nH]c3ccccc23)C(=O)N[C@@H](CC(C)C)C(=O)N[C@@H](CC(C)C)C(=O)N[C@@H](CCC(N)=O)C(=O)N[C@H](C(=O)O)[C@@H](C)O)[C@@H](O)[C@H](O)[C@H]1O [EU-A1680]	0.026	0.114
CCCCCCCCCCCCCCO[C@@H]1O[C@H](C(=O)NCCCC[C@H](NC(=O)[C@H](C)NC(=O)[C@H](C)NC(=O)[C@H](CCC(N)=O)NC(=O)[C@H](CO)NC(=O)[C@H](CC(=O)O)NC(=O)[C@@H]2CCCCNC(=O)CC[C@H](NC(=O)[C@H](CC(=O)O)NC(=O)[C@H](CO)NC(=O)[C@@H](NC(=O)[C@H](Cc3ccccc3)NC(=O)[C@@H](NC(=O)CNC(=O)[C@H](CCC(N)=O)NC(=O)C(C)(C)NC(=O)[C@@H](N)Cc3c[nH]cn3)[C@@H](C)O)[C@@H](C)O)C(=O)N[C@@H](CO)C(=O)N[C@@H](CCCCN)C(=O)N[C@@H](Cc3ccc(O)cc3)C(=O)N2)C(=O)N[C@@H](CCC(=O)O)C(=O)N[C@@H](Cc2ccccc2)C(=O)N[C@H](C(=O)N[C@@H](CCC(=O)O)C(=O)N[C@@H](Cc2c[nH]c3ccccc23)C(=O)N[C@@H](CC(C)C)C(=O)N[C@@H](CC(C)C)C(=O)N[C@@H](CCC(N)=O)C(=O)N[C@H](C(N)=O)[C@@H](C)O)[C@@H](C)CC)[C@@H](O)[C@H](O)[C@H]1O [EU-A1847] (H-H[Aib]QGTFTSDESKYKDSQAAK(GlcA(1β-O-tetradecyl))EFIEWLLQT-NH2; lactam 10-14; N-terminus assumed)	0.032	1.95

The remaining lines, values ahead:

EC50 (human GLP-1 receptor) [nM]	EC50 (human glucagon receptor) [nM]	Structure (SMILES)
0.026	0.199	CCCCCCCCCCCCO[C@@H]1O[C@H](CO[C@H]2O[C@H](C(=O)NCCCC[C@H](NC(=O)[C@H](CC(=O)O)NC(=O)[C@H](CO)NC(=O)[C@@H](NC(=O)[C@H](Cc3ccccc3)NC(=O)[C@@H](NC(=O)CNC(=O)[C@H](CCC(N)=O)NC(=O)C(C)(C)NC(=O)[C@@H](N)Cc3c[nH]cn3)[C@@H](C)O)[C@@H](C)O)C(=O)N[C@@H](CO)C(=O)N[C@@H](CCCCN)C(=O)N[C@@H](Cc3ccc(O)cc3)C(=O)N[C@@H](CC(C)C)C(=O)N[C@@H](CC(=O)O)C(=O)N[C@H]3CCC(=O)NCCCC[C@@H](C(=O)N[C@@H](CCC(=O)O)C(=O)N[C@@H](Cc4ccccc4)C(=O)N[C@H](C(=O)N[C@@H](CCC(=O)O)C(=O)N[C@@H](Cc4c[nH]c5ccccc45)C(=O)N[C@@H](CC(C)C)C(=O)N[C@@H](CC(C)C)C(=O)N[C@@H](CCC(N)=O)C(=O)N[C@H](C(N)=O)[C@@H](C)O)[C@@H](C)CC)NC(=O)[C@H](C)NC(=O)[C@H](C)NC(=O)[C@H](CCC(N)=O)NC3=O)[C@H](O)[C@H](O)[C@H]2O)[C@@H](O)[C@H](O)[C@H]1O [EU-A1598] (H-H[Aib]QGTFTSDK(Melibiouronoyl(1β-O-dodecyl))SKYLDEQAAKEFIEWLLQT-NH2; lactam 16-20; N-terminus assumed)
0.086	1.03	CCCCCCCCCCCCO[C@@H]1O[C@H](CO[C@H]2O[C@H](C(=O)NCCCC[C@H](NC(=O)[C@@H](NC(=O)[C@H](Cc3ccccc3)NC(=O)[C@H](CCC(=O)O)NC(=O)[C@@H]3CCCCNC(=O)CC[C@H](NC(=O)[C@H](CC(=O)O)NC(=O)[C@H](CC(C)C)NC(=O)[C@H](Cc4ccc(O)cc4)NC(=O)[C@H](CCCCN)NC(=O)[C@H](CO)NC(=O)[C@H](Cc4ccc(O)cc4)NC(=O)[C@H](CC(=O)O)NC(=O)[C@H](CO)NC(=O)[C@@H](NC(=O)[C@H](Cc4ccccc4)NC(=O)[C@@H](NC(=O)CNC(=O)[C@H](CCC(N)=O)NC(=O)C(C)(C)NC(=O)[C@@H](N)Cc4c[nH]cn4)[C@@H](C)O)[C@@H](C)O)C(=O)N[C@@H](CCC(=O)O)C(=O)N[C@@H](C)C(=O)N[C@@H](C)C(=O)N3)[C@@H](C)CC)C(=O)N[C@@H](Cc3c[nH]c4ccccc34)C(=O)N[C@@H](CC(C)C)C(=O)N[C@@H](CC(C)C)C(=O)N[C@@H](CCC(N)=O)C(=O)N[C@H](C(=O)O)[C@@H](C)O)[C@H](O)[C@H](O)[C@H]2O)[C@@H](O)[C@H](O)[C@H]1O [EU-A1581] (H-H[Aib]QGTFTSDYSKYLDEEAAKEFIK(Melibiouronoyl(1β-O-dodecyl))WLLQT-OH; lactam 16-20; N-terminus assumed)
0.029	0.107	CCCCCCCCCCCCO[C@@H]1O[C@H](CO[C@H]2O[C@H](C(=O)NCCCC[C@@H]3NC(=O)[C@@H](NC(=O)[C@H](CC(=O)O)NC(=O)[C@H](CC(C)C)NC(=O)[C@H](Cc4ccc(O)cc4)NC(=O)[C@H](CCCCN)NC(=O)[C@H](CO)NC(=O)[C@H](Cc4ccc(O)cc4)NC(=O)[C@H](CC(=O)O)NC(=O)[C@H](CO)NC(=O)[C@@H](NC(=O)[C@H](Cc4ccccc4)NC(=O)[C@@H](NC(=O)CNC(=O)[C@H](CCC(N)=O)NC(=O)C(C)(C)NC(=O)[C@@H](N)Cc4c[nH]cn4)[C@@H](C)O)[C@@H](C)O)CCC(=O)NCCCC[C@@H](C(=O)N[C@@H](CCC(=O)O)C(=O)N[C@@H](Cc4ccccc4)C(=O)N[C@H](C(=O)N[C@@H](CCC(N)=O)C(=O)N[C@@H](Cc4c[nH]c5ccccc45)C(=O)N[C@@H](CC(C)C)C(=O)N[C@@H](CC(C)C)C(=O)N[C@@H](CCC(N)=O)C(=O)N[C@H](C(N)=O)[C@@H](C)O)[C@@H](C)CC)NC(=O)[C@H](C)NC(=O)[C@H](C)NC3=O)[C@H](O)[C@H](O)[C@H]2O)[C@@H](O)[C@H](O)[C@H]1O [EU-A1586]
